{"source": "patent US11795169B2", "about": "“MAP4K4 inhibitors” (IMPERIAL COLLEGE INNOVATIONS LIMITED, priority 2017, dated 2023)", "key": {"Cyp": {"tested_on": "Cyp", "experiment": "Cyp Inhibition", "format": "in vitro ADME"}, "[1]": {"tested_on": "CorV.4U cardiomyocytes (hiPSC-CMs)", "experiment": "Protection of CorV.4U cardiomyocytes from H2O2 or menadione (luminescent cell viability assay, human cardiac troponin assay)", "format": "cell-based", "details": "for EC50: Homo sapiens, Cardiomyocyte", "excerpt": "To substantiate the hypothesis that pharmacological inhibition of MAP4K4 would confer resistance to cell death in human cardiomyocytes, cytoprotection was next assessed using hiPSC-CMs."}, "[2]": {"experiment": "Plasma protein binding (PPB)", "format": "in vitro ADME", "details": "for fraction unbound: plasma"}, "[3]": {"target": "human MAP4K4 kinase domain (Homo sapiens (Human), UniProt O95819)", "sequence (O95819 25-289)": "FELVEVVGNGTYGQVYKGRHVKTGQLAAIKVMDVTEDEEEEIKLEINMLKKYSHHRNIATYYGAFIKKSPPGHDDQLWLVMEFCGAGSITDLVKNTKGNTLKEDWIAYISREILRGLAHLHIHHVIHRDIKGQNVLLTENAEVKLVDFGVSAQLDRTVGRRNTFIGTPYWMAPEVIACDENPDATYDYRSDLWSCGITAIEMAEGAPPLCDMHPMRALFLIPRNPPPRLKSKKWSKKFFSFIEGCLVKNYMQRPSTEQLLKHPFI", "experiment": "MAP4K4 kinase activity, CisBio HTRF Transcreener ADP assay", "format": "biochemical", "details": "read-out: MAP4K4, IC50", "procedure,_shortened": "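Kinase activity followed by HTRF Transcreener ADP detection: enzyme-generated ADP competes with d2-labelled ADP for Eu3+-cryptate anti-ADP antibody, read ratiometrically at 665/620 nm. IC50 values reported as categories.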"}, "[4]": {"experiment": "Resistance to degradation in hepatocyte microsomes (Heps)", "format": "in vitro ADME"}, "Formulated solubility": {"experiment": "Formulated solubility", "format": "physicochemical"}, "H9c2 cardiomyocytes": {"tested_on": "H9c2 cardiomyocytes", "experiment": "Protection of H9c2 cardiomyocytes", "format": "cell-based"}, "[5]": {"tested_on": "mice undergoing experimental myocardial infarction", "experiment": "Experimental myocardial infarction in mice (infarct size, TUNEL staining)", "format": "in vivo", "procedure": "To test if target validation and compound development in hiPSC-CMs might predict success in a whole-animal context, mice undergoing experimental myocardial infarction were treated with Ex-58 or the vehicle control (FIG. 9). […] Treatment was begun either 20 min prior to ischemia (FIG. 9D), or 1 h after reperfusion injury (FIG. 9E, F), the latter having greater relevance to potential clinical benefits."}, "Cyp 2C9": {"target": "Cyp 2C9 (Homo sapiens (Human), UniProt P11712)", "sequence (P11712 whole entry)": "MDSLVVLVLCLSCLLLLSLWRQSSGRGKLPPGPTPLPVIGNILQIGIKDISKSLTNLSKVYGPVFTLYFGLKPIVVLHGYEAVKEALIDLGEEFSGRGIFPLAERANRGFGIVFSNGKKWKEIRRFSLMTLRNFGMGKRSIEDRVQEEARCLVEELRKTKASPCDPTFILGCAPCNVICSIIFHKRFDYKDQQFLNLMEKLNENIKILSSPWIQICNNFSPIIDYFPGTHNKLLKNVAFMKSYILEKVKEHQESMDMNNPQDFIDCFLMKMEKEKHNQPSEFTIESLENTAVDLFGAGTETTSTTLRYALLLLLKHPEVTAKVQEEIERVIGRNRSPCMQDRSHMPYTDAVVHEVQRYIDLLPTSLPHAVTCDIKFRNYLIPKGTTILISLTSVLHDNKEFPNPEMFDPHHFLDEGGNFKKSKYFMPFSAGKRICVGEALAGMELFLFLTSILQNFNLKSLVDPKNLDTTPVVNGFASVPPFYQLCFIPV", "experiment": "Cyp Inhibition: 2C9", "format": "in vitro ADME"}}, "note": "Where two headings read alike, the source gives them in different places.", "data": [{"smiles": "O=c1[nH]cnc2c1c(-c1ccc(OCC3(CO)COC3)cc1)cn2-c1ccccc1", "note": "[Ex-54]", "values": [{"measurement": "Cyp Inhibition", "setting": "Cyp", "result": ">10", "unit": "µM"}, {"measurement": "Protection in human iPSC-derived ventricular cardiomyocytes, H202, efficacy relative to Ex-58", "setting": "[1]; H2O2 as death trigger, relative to Ex-58", "result": "(0.9)"}, {"measurement": "EC50", "setting": "[1]; H2O2 as death trigger, read-out: Protection in human iPSC-derived ventricular cardiomyocytes, EC50 H202", "result": 469, "unit": "nM"}, {"measurement": "EC50", "setting": "[1]; read-out: EC50, protection of human cardiomyocytes", "result": "< 1000", "unit": "nM"}, {"measurement": "plasma protein binding (PPB) relative to Ex-58", "setting": "[2]", "result": "superior"}, {"measurement": "fraction unbound", "setting": "[2]; human, read-out: Human PPB % (converted)", "result": 0.03}, {"measurement": "fraction unbound", "setting": "[2]; mouse, read-out: Mouse PPB % (converted)", "result": 0.03}, {"measurement": "IC50", "setting": "[3]", "result": 4, "unit": "nM"}, {"measurement": "resistance to degradation in hepatocyte microsomes (Heps) relative to Ex-58", "setting": "[4]", "result": "superior"}, {"measurement": "Human Heps", "setting": "[4]; human", "result": 5}, {"measurement": "Mouse Heps", "setting": "[4]; mouse", "result": 25}, {"measurement": "Pig Heps", "setting": "[4]; pig", "result": 6}, {"measurement": "Rat Heps", "setting": "[4]; rat", "result": 3}, {"measurement": "solubility", "setting": "Formulated solubility", "result": 300, "unit": "µg/mL"}, {"measurement": "Protection in H9c2 cardiomyocytes, efficacy relative to Ex-58", "setting": "H9c2 cardiomyocytes; H9c2 cardiomyocytes, relative to Ex-58", "result": "(0.3)"}, {"measurement": "EC50", "setting": "H9c2 cardiomyocytes; Rattus norvegicus, H9c2", "result": 199, "unit": "nM"}, {"measurement": "In vivo efficacy (infarct size/area at risk), reduction", "setting": "[5]; mice, experimental myocardial infarction", "result": 53, "unit": "% reduction"}, {"measurement": "infarct size in mice (in words)", "setting": "[5]; mouse, in vivo", "result": "Reduction of infarct size"}, {"measurement": "Cyp Inhibition 2C9", "setting": "Cyp 2C9", "result": "(2C9 8 μM)"}]}]}
